Counter-ions that a name gives are not always drawn. Like-named read-outs stand apart in the source and are kept apart here.
Tests used:
male CFLP mice [1] = assay: Anticonvulsive effect in mice, electroshock test; format: in vivo; details: Mus musculus, po, read-out: ED50 p.o., ES (electroshock)
Experimental: (§1) The anticonvulsive effect of the compounds of the formula (I) was measured by using the electroshock test [J. Pharmacol. Exp. Ther. 106, 319 (1952)], furthermore by using various chemical agents such as pentetrazole [J. Pharmacol. Exp. Ther. 108, 168 (1953)], strychnine [J. Pharmacol. Exp. Ther. 129, 75 (1960)], bemegride, nicotine and 4-aminopyridine. The test compounds were orally administered in 3 doses, to 10 male CFLP mice per dose.

male CFLP mice [2] = assay: Anticonvulsive effect in mice, pentetrazole; format: in vivo; details: Mus musculus, po, read-out: ED50 p.o., Pentetrazole
Experimental: as §1

mice = assay: Rotarod test in mice; format: in vivo; details: Mus musculus, ip, read-out: ED50 i.p., rotarod test
Source text: The rotarod test was used to measure muscular tone and motor co-ordination [J. Am. Pharm. Assoc. 46, 208 (1957)].

male CFLP mice [3] = assay: Anticonvulsive effect in mice, bemegride; format: in vivo; details: Mus musculus, po, read-out: ED50 p.o., Bemegride
Experimental: as §1

male CFLP mice [4] = assay: Anticonvulsive effect in mice, 4-aminopyridine; format: in vivo; details: Mus musculus, po, read-out: ED50 p.o., 4-AP (4-aminopyridine)
Experimental: as §1

Acute toxicity in mice = details: mouse, in vivo
Experimental: The cause of mortality was respiratory insufficiency developing within 1 to 2 hours after i.p. administration and within 10 to 20 hours after oral application.

male CFLP mice [5] = assay: Anticonvulsive effect in mice, nicotine; format: in vivo; details: Mus musculus, po
Experimental: as §1

CFLP mice = assay: Inclined screen test in mice; format: in vivo; details: Mus musculus, ip, read-out: ED50 i.p., inclined screen test
Source text: In Randall's inclined screen test [J. Pharmacol. Exp. Ther. 129, 163 (1960)] the compounds were applied in 3 i.p. doses to 10 CFLP mice per dose.

male CFLP mice [6] = assay: Anticonvulsive effect in mice, strychnine; format: in vivo; details: Mus musculus, po, read-out: ED50 p.o., Strychnine
Experimental: as §1

cats = assay: Effects on spinal root reflex potentials in spinalized and immobilized cats; format: in vivo; details: for minimal effective dose: Felis catus
Experimental: The effect of compound of Example 15(16) on the spinal root potentials in cats was tested in spinalized and immobilized animals [Neuropharmacology 21, 161 (1989)].

Row | Structure (SMILES) | ED50 (male CFLP mice [1]; mice, p.o.) | ED50 (male CFLP mice [2]; mice, p.o.) | ED50 (mice; mice, i.p.) | ED50 (male CFLP mice [3]; mice, p.o.) | ED50 (male CFLP mice [4]; mice, p.o.) | LD50 (Acute toxicity in mice; ip, read-out: LD50 i.p.) | LD50 (Acute toxicity in mice; po, read-out: LD50 p.o.) | ED50 (male CFLP mice [5]) | ED50 (CFLP mice; mice, i.p.) | ED50 (male CFLP mice [6]) | also measured
1 | CC(=O)N1N=C(c2ccc(NC(=O)CN3CCCC3)cc2)c2cc3c(cc2CC1C)OCO3 (centres unmarked) [Example 109, 1-[4-(1-Pyrrolidinoacetylamino)phenyl]-3-acetyl-4-methyl-7,8-methylenedioxy-3,4-dihydro-5H-2,3-benzodiazepine hydrogen fumarate] | 21 mg/kg | > 100 mg/kg |  |  |  |  |  |  |  |  | 
2 | CCC(=O)Nc1ccc(C2=NN(C(C)=O)C(C)Cc3cc4c(cc32)OCO4)cc1 (centres unmarked) [Example 48] | 10.5 mg/kg | 30.5 mg/kg | 7.2 mg/kg | 33 mg/kg | 20 mg/kg | 103 mg/kg | 149 mg/kg | 25 mg/kg | 20.5 mg/kg | > 100 mg/kg | 
3 | CCN(CC)CC(=O)Nc1ccc(C2=NN(C(C)=O)C(C)Cc3cc4c(cc32)OCO4)cc1 (centres unmarked) [Example 108, 1-[4-(N,N-diethylglycylamino)phenyl]-3-acetyl-4-methyl-7,8-methylenedioxy-3,4-dihydro-5H-2,3-benzodiazepine] | 27 mg/kg | > 100 mg/kg |  |  |  |  |  |  |  |  | 
4 | CC(=O)N1N=C(c2ccc(NC(=O)CN)cc2)c2cc3c(cc2CC1C)OCO3 (centres unmarked) [Example 73] | 16 mg/kg | 62 mg/kg | 6.3 mg/kg | 49 mg/kg | 28 mg/kg | 143 mg/kg | 168 mg/kg | 53 mg/kg | 27 mg/kg | > 100 mg/kg | 
5 | O=C1NC(=O)C(c2ccccc2)(c2ccccc2)N1 [Phenytoin, 5,5-diphenyl-2,4-imidazolidinedione, reference compound] | 10 mg/kg | > 400 mg/kg |  | > 200 mg/kg |  |  |  | 12 mg/kg |  | 160 mg/kg | 
6 | CCC(=O)N1N=C(c2ccc(NC(C)=O)cc2)c2cc3c(cc2CC1C)OCO3 (centres unmarked) [Example 49] | 25 mg/kg | 53 mg/kg | 9.4 mg/kg | 43 mg/kg | 28 mg/kg |  |  | 45 mg/kg | 36 mg/kg | > 100 mg/kg | 
7 | CCC(=O)Nc1ccc(C2=NN(C=O)C(C)Cc3cc4c(cc32)OCO4)cc1 (centres unmarked) [Example 60] | 24 mg/kg | 62 mg/kg |  |  |  |  |  |  |  |  | 
8 | CNC(=O)N1N=C(c2ccc(NC(=O)CN)cc2)c2cc3c(cc2CC1C)OCO3 (centres unmarked) [Example 115, 1-(4-Glycylaminophenyl)-3-methylcarbamoyl-4-methyl-7,8-methylenedioxy-3,4-dihydro-5H-2,3-benzodiazepine] | 17.1 mg/kg | 23.9 mg/kg | 7.3 mg/kg |  |  | 90.7 mg/kg | 200 to 250 mg/kg |  | 16.1 mg/kg |  | 
9 | COCC(=O)Nc1ccc(C2=NN(C(C)=O)C(C)Cc3cc4c(cc32)OCO4)cc1 (centres unmarked) [Example 52] | 17.5 mg/kg | 36 mg/kg | 4.8 mg/kg | 29 mg/kg | 24 mg/kg | 117 mg/kg | 188 mg/kg | 13.5 mg/kg | 21 mg/kg | > 100 mg/kg | 
10 | CCC(=O)N1N=C(c2ccc(N)cc2)c2cc3c(cc2CC1C)OCO3 (centres unmarked) [Example 18] |  |  |  |  |  |  |  | 16 mg/kg |  | > 100 mg/kg | ED50 (mice): 7.5 mg/kg; ED50 (male CFLP mice [3]): 20 mg/kg; ED50 (male CFLP mice [4]): 16 mg/kg; ED50 (male CFLP mice [1]): 17.5 mg/kg; ED50 (male CFLP mice [2]): 29 mg/kg; ED50 (CFLP mice): 31 mg/kg
11 | CC(=O)N1N=C(c2ccc(NC=O)cc2)c2cc3c(cc2CC1C)OCO3 (centres unmarked) [Example 46] | 20 mg/kg | 57 mg/kg |  | 56 mg/kg | 17 mg/kg | 173 mg/kg | 162 mg/kg | 80 mg/kg |  | > 100 mg/kg | 
12 | CN1C(=O)CN=C(c2ccccc2)c2cc(Cl)ccc21 [Diazepam, 7-chloro-1,3-dihydro-1-methyl-5-phenyl-2H-1,4-benzodiazepin-2-one, reference compound] |  |  |  |  |  |  |  | 1.85 mg/kg |  | 15 mg/kg | ED50 (male CFLP mice [3]): 0.58 mg/kg; Effect on both dorsal root responses (cats): markedly potentiated; minimal effective dose (cats; read-out: Minimal effective dose, inhibition of polysynaptic reflexes): < 0.1 mg/kg; minimal effective dose (cats; read-out: Minimal effective doses, potentiation of dorsal root responses): ~0.1 mg/kg; Maximal inhibition of polysynaptic reflexes (cats; partial inhibition): ≤ 50%; Effect on monosynaptic reflexes (cats; up to 3.2 mg/kg): did not affect; ED50 (male CFLP mice [1]): 18 mg/kg; ED50 (male CFLP mice [2]): 0.86 mg/kg
13 | CC(=O)N1N=C(c2ccc(NC(=O)CN(C)C)cc2)c2cc3c(cc2CC1C)OCO3 (centres unmarked) [Example 107, 1-[4-(N,N-dimethylglycylamino)phenyl]-3-acetyl-4-methyl-7,8-methylenedioxy-3,4-dihydro-5H-2,3-benzodiazepine] | 23.5 mg/kg | 120 mg/kg |  | 25.4 mg/kg | 36.8 mg/kg |  |  | 34.2 mg/kg |  | 22.8 mg/kg | 
14 | CC(=O)N1N=C(c2ccc(NC(=O)C(F)(F)F)cc2)c2cc3c(cc2CC1C)OCO3 (centres unmarked) [Example 62] | 12.5 mg/kg | 56 mg/kg | 7.8 mg/kg | 36 mg/kg | 29 mg/kg | 136 mg/kg | 160 mg/kg | 31 mg/kg | 25.5 mg/kg | > 100 mg/kg | 
15 | CC(=O)N(C(C)=O)c1ccc(C2=NN(C(C)=O)C(C)Cc3cc4c(cc32)OCO4)cc1 (centres unmarked) [Example 39, 1-(4-Diacetylaminophenyl)-3-acetyl-4-methyl-7,8-methylenedioxy-3,4-dihydro-5H-2,3-benzodiazepine] | 53 mg/kg | 170 mg/kg |  | > 200 mg/kg | 29 mg/kg | 271 mg/kg | > 600 mg/kg |  |  |  | 
16 | CC1=NN=C(c2ccc(NC(=O)C(C)N)cc2)c2cc3c(cc2C1)OCO3 (racemic) [Example 69] | 57 mg/kg | > 100 mg/kg |  |  |  |  |  |  |  |  | 
17 | CC1=NN=C(c2ccc(NC(=O)CN)cc2)c2cc3c(cc2C1)OCO3 [Example 66, 1-(4-Glycylaminophenyl)-4-methyl-7,8-methylenedioxy-5H-2,3-benzodiazepine] | 42 mg/kg | 135 mg/kg | 18.5 mg/kg | > 100 mg/kg | 84 mg/kg | 205 mg/kg | 281 mg/kg | 105 mg/kg | 52 mg/kg | 105 mg/kg | 
18 | CCC(=O)Nc1ccc(C2=NN(C(=O)CC)C(C)Cc3cc4c(cc32)OCO4)cc1 (centres unmarked) [Example 45, 1-(4-Propionylaminophenyl)-3-propionyl-4-methyl-7,8-methylenedioxy-3,4-dihydro-5H-2,3-benzodiazepine] | 27 mg/kg | 44 mg/kg | 10 mg/kg | 51 mg/kg | 34 mg/kg | 98.4 mg/kg | 206 mg/kg | 23 mg/kg | 35 mg/kg | > 100 mg/kg | 
19 | CC(=O)Nc1ccc(C2=NN(C(C)=O)C(C)Cc3cc4c(cc32)OCO4)cc1 (centres unmarked) [Example 42, 1-(4-Acetylaminophenyl)-3-acetyl-4-methyl-7,8-methylenedioxy-3,4-dihydro-5H-2,3-benzodiazepine] | 24 mg/kg | 33 mg/kg | 8.1 mg/kg | 24 mg/kg | 34 mg/kg | 120 mg/kg | 185 mg/kg | 155 mg/kg | 42 mg/kg | 28 mg/kg | 
20 | NCC(CC(=O)O)c1ccc(Cl)cc1 (stereo not drawn) [Baclofen, β-(aminomethyl)-4-chlorobenzeneprioionic acid, reference compound] |  |  |  |  |  |  |  |  |  |  | ED50 (mice): 12.5 mg/kg; ED50 (CFLP mice): 26 mg/kg

Source: US5639751A, “N-acyl-2,3-benzodiazepine derivatives for treating acute and chronic neurodegenerative disorders” (priority 1990, dated 1997)
